Test results: ChEMBL document CHEMBL5214928, “DEAD-Box Helicase DDX3X as a Host Target against Emerging Viruses: New Insights for Medicinal Chemical Approaches” (J Med Chem, 2022)

Assays:
[1] = target: T1, ATP-dependent RNA helicase DDX3X (Homo sapiens, UniProt O00571); experiment: Binding affinity to DDX3X (unknown origin) assessed as inhibition constant
[2] = Selectivity index, ratio of CC50 for human H9 cells to EC50 for HIV-1 NL4-3 infected in human H9 cells; format: toxicity, cell-based; conditions: read-out: Ratio CC50/EC50
H9 = experiment: Cytotoxicity against human H9 cells assessed as reduction in cell viability incubated for 72 hrs by luciferase based assay; format: functional
[3] = tested on: Human immunodeficiency virus 1; experiment: Antiviral activity against HIV-1 NL4-3 infected in human H9 cells assessed as reduction in viral replication at MOI of 0.03 measured after 48 hrs by Bright-Glo Luciferase Assay; format: functional, organism-based; conditions: Human immunodeficiency virus 1, NL4-3, H9, 48 h
[4] = target: T1, ATP-dependent RNA helicase DDX3X; experiment: Inhibition of DDX3X (unknown origin) helicase activity
HeLa = experiment: Cytotoxicity against human HeLa cells assessed as reduction in cell viability incubated for 72 hrs with replacement of medium containing compound for every 24 hrs by MTS based Cell Titer 96 viability assay; format: functional
[5] = Selectivity index, ratio of CC50 for human HeLa cells to EC50 for recombinant HIV-1 infected in CD4+ human HeLa cells; format: toxicity, cell-based; conditions: read-out: Ratio CC50/EC50
[6] = tested on: Human immunodeficiency virus 1; experiment: Antiviral activity against recombinant HIV-1 infected in CD4+ human HeLa cells assessed as reduction in viral replication; format: functional, organism-based; conditions: Human immunodeficiency virus 1, HeLa
[7] = Half life in mouse administered intraperitoneally; format: ADME; conditions: in vivo, route ip
dengue virus type 2 [8] = experiment: Antiviral activity against DENV-2 infected in African green monkey Vero cells assessed as reduction in viral replication incubated for 22 hrs by plaque assay; format: functional, organism-based
[9] = Cytotoxicity against African green monkey Vero cells assessed as reduction in cell viability incubated for 22 hrs by XTT assay; format: toxicity, cell-based; conditions: chlorocebus sabaeus
SARS-CoV-2 = experiment: Antiviral activity against SARS-CoV-2 isolate 2019-nCoV/Italy-INMI1 infected in African green monkey Vero E6 cells assessed as reduction in viral replication at MOI of 0.01 incubated for 5 days by qRT-PCR analysis; format: functional, organism-based; conditions: Severe acute respiratory syndrome coronavirus 2, 2019-nCoV/Italy-INMI1, Vero C1008, 120 h
West Nile virus [10] = experiment: Antiviral activity against WNV infected in African green monkey Vero cells assessed as reduction in viral replication incubated for 22 hrs by plaque formation assay; format: functional, organism-based
[11] = Selectivity index, ratio of CC50 for African green monkey Vero cells to EC50 for RSV infected in African green monkey Vero cells; format: toxicity; conditions: read-out: Ratio CC50/EC50
[12] = Selectivity index, ratio of CC50 for African green monkey Vero cells to EC50 for DENV-2 infected in African green monkey Vero cells; format: toxicity; conditions: read-out: Ratio CC50/EC50
Hepatitis C virus [13] = experiment: Antiviral activity against HCV-1 infected in human Huh-7 cells assessed as reduction in viral replication; format: functional, organism-based, Hepacivirus hominis; conditions: genotype 1, Huh-7
Huh-7 = experiment: Cytotoxicity against human Huh-7 cells assessed as reduction in cell viability; format: functional
[14] = tested on: Respiratory syncytial virus; experiment: Antiviral activity against RSV infected in African green monkey Vero cells assessed as reduction in viral replication incubated for 22 hrs by plaque formation assay; format: functional, organism-based; conditions: human respiratory syncytial virus
[15] = Selectivity index, ratio of CC50 for human Huh-7 cells to EC50 for HCV-1 infected in human Huh-7 cells; format: toxicity, cell-based; conditions: read-out: Ratio CC50/EC50
Human respirovirus 3 = experiment: Antiviral activity against hPIV-3 infected in African green monkey Vero cells assessed as reduction in viral replication incubated for 22 hrs by plaque formation assay; format: functional, organism-based; conditions: Human respirovirus 3, Vero
Zika virus = experiment: Antiviral activity against ZIKV infected in African green monkey Vero cells assessed as reduction in viral replication incubated for 22 hrs by plaque assay; format: functional, organism-based
[16] = Selectivity index, ratio of CC50 for African green monkey Vero cells to EC50 for ZIKV infected in African green monkey Vero cells; format: toxicity; conditions: read-out: Ratio CC50/EC50
[17] = Selectivity index, ratio of CC50 for African green monkey Vero cells to EC50 for WNV infected in African green monkey Vero cells; format: toxicity; conditions: read-out: Ratio CC50/EC50
[18] = Selectivity index, ratio of CC50 for African green monkey Vero cells to EC50 for hPIV-3 infected in African green monkey Vero cells; format: toxicity; conditions: read-out: Ratio CC50/EC50
[19] = Cytotoxicity against African green monkey Vero E6 cells assessed as reduction in cell viability; format: toxicity, cell-based, Vero C1008; conditions: chlorocebus sabaeus
[20] = Half life in rat administered intravenously; format: ADME; conditions: in vivo, route iv
[21] = Cytotoxicity against human LucUbiNeo-ET cells assessed as reduction in cell viability by MTT assay; format: functional
[22] = tested on: Japanese encephalitis virus; experiment: Antiviral activity against JEV SA14-14-2 infected in hamster BHK-21 cells assessed as reduction in viral replication by plaque formation assay; format: functional, organism-based; conditions: SA14-14-2, BHK-21
[23] = Selectivity index, ratio of CC50 for hepatoma cells (unknown origin) to EC50 for HCV-1 infected in hepatoma cells (unknown origin); format: toxicity, cell-based; conditions: read-out: Ratio CC50/EC50
[24] = Cytotoxicity against hamster BHK-21 cells assessed as reduction in cell viability at MOI of 0.01 incubated for 48 hrs by plaque formation assay; format: toxicity, cell-based, Mesocricetus auratus
Hepatitis C virus [25] = experiment: Antiviral activity against HCV-1 infected in human LucUbiNeo-ET cells assessed as reduction in viral replication incubated for 2 days by luminometry; format: functional, organism-based, Hepacivirus hominis; conditions: genotype 1, LucUbiNeo-ET, 48 h
[26] = tested on: Human immunodeficiency virus 1; experiment: Antiviral activity against HIV-1 NL4-3 infected in PBMC (unknown origin) assessed as reduction in viral replication; format: functional, organism-based; conditions: Human immunodeficiency virus 1, NL4-3, PBMC
dengue virus type 2 [27] = experiment: Antiviral activity against DENV-2 New Guinea C infected in human Huh-7 cells assessed as reduction in viral replication; format: functional, organism-based
[28] = Selectivity index, ratio of CC50 for human Huh-7 cells to EC50 for WNV infected in human Huh-7 cells; format: toxicity, cell-based; conditions: read-out: Ratio CC50/EC50
[29] = Selectivity index, ratio of CC50 for hamster BHK-21 cells to EC50 for JEV SA14-14-2 infected in hamster BHK-21 cells; format: toxicity, cell-based; conditions: read-out: Ratio CC50/EC50
West Nile virus [30] = experiment: Antiviral activity against WNV infected in human Huh-7 cells assessed as reduction in viral replication; format: functional, organism-based
[31] = Cytotoxicity against PBMC (unknown origin) assessed as reduction in cell viability; format: toxicity, cell-based
[32] = Selectivity index, ratio of CC50 for human LucUbiNeo-ET cells to EC50 for HCV-1 infected in human LucUbiNeo-ET cells; format: toxicity, cell-based; conditions: read-out: Ratio CC50/EC50
[33] = Selectivity index, ratio of CC50 for PBMC (unknown origin) to EC50 for HIV-1 NL4-3 infected in PBMC (unknown origin); format: toxicity; conditions: read-out: Ratio CC50/EC50
[34] = Selectivity index, ratio of CC50 for human Huh-7 cells to EC50 for DENV-2 New Guinea C infected in human Huh-7 cells; format: toxicity, cell-based; conditions: read-out: Ratio CC50/EC50

T1 sequence (O00571 whole entry): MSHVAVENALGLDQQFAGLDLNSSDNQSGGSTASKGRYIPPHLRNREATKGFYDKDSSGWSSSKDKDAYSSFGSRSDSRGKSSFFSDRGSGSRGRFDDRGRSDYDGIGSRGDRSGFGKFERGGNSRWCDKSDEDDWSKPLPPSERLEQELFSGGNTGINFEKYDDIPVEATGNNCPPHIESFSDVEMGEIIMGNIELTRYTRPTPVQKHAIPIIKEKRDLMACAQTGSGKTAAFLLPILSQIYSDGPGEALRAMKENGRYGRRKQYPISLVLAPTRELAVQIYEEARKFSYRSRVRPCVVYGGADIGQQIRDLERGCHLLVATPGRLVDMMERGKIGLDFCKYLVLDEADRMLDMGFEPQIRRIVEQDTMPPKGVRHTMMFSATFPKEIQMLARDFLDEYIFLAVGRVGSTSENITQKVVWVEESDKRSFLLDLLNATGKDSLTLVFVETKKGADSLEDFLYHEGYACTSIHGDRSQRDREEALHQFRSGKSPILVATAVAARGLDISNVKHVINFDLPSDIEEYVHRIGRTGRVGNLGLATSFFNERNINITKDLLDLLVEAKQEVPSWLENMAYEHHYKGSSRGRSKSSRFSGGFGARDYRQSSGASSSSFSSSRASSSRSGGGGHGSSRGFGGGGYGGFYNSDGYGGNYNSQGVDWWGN

`CC(=O)Nc1ccc(/C=N/Nc2nc(Nc3ccccc3)nc(NN3CCOCC3)n2)cc1` showed a Ki [1] of 2.2 µM.
For `O=C(O)c1ccccc1C(=O)Nc1nnc(-c2ccc(O)cc2)s1`, the selectivity ratio [2] was 45, the CC50 (H9) was 125 µM and the EC50 [3] was 2.8 µM.
`Cc1cccc(NC(=O)CCN2C(=O)/C(=C/c3ccccc3O)SC2=S)c1` showed a Ki [1] of 97 µM.
In the case of `CC(C)Cc1cn(-c2ccc(NC(=O)Nc3ccccc3F)cc2)nn1`, the IC50 [4] is reported as 0.12 µM.
Compound `COc1cccc(NC(=O)CCN2C(=O)/C(=C/c3ccccc3O)SC2=S)c1` has a Ki [1] of 10 µM.
`OCCc1cc(Nc2ccc(F)cc2)nc(N/N=C/c2ccccc2O)n1` showed a CC50 (HeLa) of 65 µM, a selectivity ratio [5] of 10 and an EC50 [6] of 6.5 µM.
For `CCCCc1cn(-c2ccc(NC(=O)Nc3ccccc3C(F)(F)F)cc2)nn1`, the half-life [7] was 5 h.
In the case of `Oc1ccc(Cl)cc1/C=N/Nc1nc(NCc2ccccc2)nc(NN2CCOCC2)n1`, the Ki [1] is reported as 1.9 µM.
Compound `COc1ccc(Cn2c3ncnc4c(ncn4Cc4ccc(OC)cc4)c-3nc2=O)cc1` has an EC50 (dengue virus type 2 [8]) of 8.5 µM, a CC50 at 22 h [9] of 29.7 µM and an EC50 (SARS-CoV-2) of less than 5 µM. It also gave an EC50 (West Nile virus [10]) of 8.5 µM, a selectivity ratio [11] of 2.2 and a selectivity ratio [12] of 3.5. The half-life [7] was 7 h, the EC50 (Hepatitis C virus [13]) was 2 µM and the CC50 (Huh-7) was less than 10 µM. It also gave an EC50 [14] of 13.4 µM, a selectivity ratio [15] of less than 5 and an EC50 (Human respirovirus 3) of 28.2 µM. For the same compound, the EC50 (Zika virus) was 7 µM, the selectivity ratio [16] was 4.2 and the selectivity ratio [17] was 3.5. The selectivity ratio [18] was 1 and the CC50 [19] was greater than 30 µM.
For `Oc1ccccc1/C=N/Nc1nc(NCc2ccccc2)nc(NN2CCOCC2)n1`, the Ki [1] was 0.6 µM.
Work on `CC(=O)Nc1ccc(/C=N/Nc2nc(NCc3ccccc3)nc(Nc3ccccc3)n2)cc1` yielded a Ki [1] of 0.5 µM.
Work on `O=C(CCN1C(=O)/C(=C/c2ccccc2O)SC1=S)Nc1cc(F)cc(F)c1` yielded a Ki [1] of 0.5 µM.
`O=[N+]([O-])c1cccc(/C=N/Nc2nc(NCc3ccccc3)nc(NNc3ccc(F)cc3)n2)c1O` gave a Ki [1] of 4 µM.
`CC(=O)Nc1ccc(/C=N/Nc2nc(Nc3ccccc3)nc(Nc3ccccc3)n2)cc1` showed a CC50 (HeLa) of 10 µM, a selectivity ratio [5] of 5 and an EC50 [6] of 2 µM. The Ki [1] was 0.3 µM.
`CCCCc1cn(-c2ccc(NC(=O)Nc3ccccc3C)cc2)nn1` showed a half-life [20] of 3 h, a CC50 [21] of 49.8 µM and an EC50 [22] of 20 µM. The selectivity ratio [23] was greater than 200, the CC50 at 48 h [24] was greater than 50 µM and the EC50 (Hepatitis C virus [25]) was 0.97 µM. For the same compound, the EC50 [26] was 1.1 µM, the EC50 (dengue virus type 2 [27]) was 2.55 µM and the selectivity ratio [28] was greater than 12. For the same compound, the selectivity ratio [29] was greater than 2.5, the EC50 (West Nile virus [30]) was 16.5 µM and the CC50 [31] was greater than 100 µM. It also gave a selectivity ratio [32] of 51, a selectivity ratio [33] of 91 and a selectivity ratio [34] of 78.
In the case of `COc1ccc(/C=C2\SC(=S)N(CCC(=O)Nc3cccc(O)c3)C2=O)cc1`, the Ki [1] is reported as 2 µM.
With `O=C(CCN1C(=O)/C(=C/c2cccc(Br)c2)SC1=S)Nc1cccc(O)c1` the Ki [1] was 90 µM.
In the case of `Oc1ccccc1/C=N/Nc1nc(Nc2cccc(Cl)c2)nc(NN2CCOCC2)n1`, the Ki [1] is reported as 0.4 µM.
Compound `Cc1ccccc1NC(=O)Nc1cccc([N+](=O)[O-])c1` has an EC50 [22] of 10 µM, a CC50 at 48 h [24] greater than 50 µM and a selectivity ratio [29] greater than 5.
Compound `CCN(CC)Nc1nc(N/N=C/c2ccccc2O)nc(Nc2ccccc2)n1` has a Ki [1] of 0.1 µM.
With `CC(C)Cc1cn(-c2ccc(NC(=O)Nc3cccc(F)c3)cc2)nn1` the IC50 [4] was 0.2 µM.
